Data set [1] is described as follows: Metabolic stability in pooled human liver microsomes. The format is in vitro ADME. To be noted: 1 μM; for residual of time zero: pooled human liver microsomes 0.5 mg/mL, t = 60 min, NADPH; for parent structure loss (depletion) class: pooled human liver microsomes, 60 min. As for the experimental part: For metabolic stability assessment, pooled human liver microsomes were employed at 0.5 mg/mL. Incubation conditions were optimized to ensure linear metabolite formation with respect to protein concentration and reaction time. All test compounds were assessed at 1 μM based on our ADMET standard operating procedures and protocols, also published previously (1 μM was selected based on our ADMET standard operating procedures and protocols also published previously) (Rogdakis et al., [2022]; Yilmaz et al., [2022]). Approximately 1 mM of NADPH served as a cofactor. Reactions took place in triplicates at 37°C. Negative and positive controls (low vs. rapid clearance) were included for low vs. rapid clearance. After 60 min, reactions were terminated.
Parent structure loss is classified as very slow (<5%), slow (5–19%), moderate (20–50%), fast (50–80%), or very fast (>80%). Such categories have been defined according to set criteria, namely, high metabolism (t1/2 value of <30 min), moderate metabolism (30 min <t1/2 value of <60 min), and low metabolism (t1/2 value of >60 min) (EMA, [2012], [2013]; FDA, [2020]).
Background: Liver microsomes are vesicles of endoplasmic reticulum, rich in cytochrome P450 enzymes.

For data set [2], the system named is PC12 cells. The data set is described as follows: CellTox assay, survival of PC12 cells under serum deprivation. The format is cell-based. To be noted: compound 1 μM; NGF 100 ng/mL as control (Figure 10). As for the experimental part: PC12 cells were obtained from LGC Promochem and cultured under specified conditions. Cells were grown in DMEM medium (Thermo Fischer Scientific, cat# 10566016) containing 10% horse serum (Thermo Fischer Scientific, cat# 16050122), 5% fetal bovine serum (Thermo Fischer Scientific, cat# 10270106), 100 units/mL penicillin, and 0.1 mg/mL streptomycin (Thermo Fischer Scientific, cat# 15140122) at 5% CO2 and 37°C. Cells were used between passages 5 and 20.
CellTox assay (G8742, Promega, Leiden, Belgium) was used to assess the survival of PC12 cells under serum deprivation conditions. PC12 cells were plated in 96-well plates, starved from serum for 4 h, and subsequently treated with NGF (100 ng/mL) or compound (500 nM) for 24 h. CellTox assay reagents and Hoescht (1:10,000, H3570, Invitrogen, Massachusetts, USA) were then added to each well for 30 min, and then, cells were imaged with a Zeiss AXIO Vert A1 fluorescent microscope. CellTox positive cells were normalized to the total number of cells for each image.
Initially, we tested compounds ENT-A002, ENT-A007, ENT-A009, ENTA025, ENT-A026, ENT-A033, ENT-A034, ENT-A035, ENT-A036, ENT-A037, ENT-A046, ENT-A047, ENT-A055, and ENT-A056 for their ability to protect PC12 cells from serum deprivation-induced cell death as well as for their ability to activate TrkA downstream pro-survival signaling kinases Akt and Erk1/2 (Figures 9A–C). We opted to employ PC12 cells, which express receptors TrkA and p75 and have been routinely used for investigating NGF-TrkA signaling. PC12 cells were subjected to a period of nutrient deprivation (without fetal bovine serum and horse serum in their culture medium) for 4 h. Following this, NGF (100 ng/mL) or one of the compounds (500 nM or 1 μM) was administered and allowed to interact with the cells for 24 h. Following that, CellTox and Hoescht dyes were added and cells were imaged to assess cell death. Control cases involved cells cultured in full medium (serum), cells under starvation conditions (serum-free), and cells under starvation conditions treated with DMSO (SF+DMSO).

The text below walks through data of article PMC10568017, “A quest for the stereo-electronic requirements for selective agonism for the neurotrophin receptors TrkA and TrkB in 17-spirocyclic-dehydroepiandrosterone derivatives” (Frontiers in Molecular Neuroscience, 2023).

Structures are written as SMILES. Entries after “also recorded” stand apart in the source; their conditions may differ. A value given as a limit tells only on which side of the number the result lay.

Consider `CCC1=CCC2(CCC3C4CC=C5CC(O)CCC5(C)C4CCC32C)OC1` [ENT-A070, (3S,17R)-5′-ethyl-3′,6′-dihydrospiro[5-androstene-17,2′-pyran]-3-ol], for which, in data set [1], the “residual of time zero” value was > 95% and the “parent structure loss (depletion) class” value is recorded as “very slow (very slow (<5%))”. Moreover, the “protection of PC12 cells from serum deprivation-induced death (CellTox)” value (“protection of PC12 cells” for short) in data set [2] is recorded as “found to promote PC12 cell survival during stress conditions; also recorded: promote cell survival as well as NGF does under stress conditions”.

Regarding `CC12CCC(O)CC1=CCC1C2CCC2(C)C1CCC21CC=C(C=C2CCC2)CO1` [ENT-A065, (3S,17R)-5′-(cyclobutylidenemethyl)-3′,6′-dihydrospiro[5-androstene-17,2′-pyran]-3-ol], the “protection of PC12 cells” value in data set [2] is “promote cell survival as well as NGF does under stress conditions”.

Regarding `CC=CC1=CCC2(CCC3C4CC=C5CC(O)CCC5(C)C4CCC32C)OC1` [ENT-A068, (E, Z) (3S,17R)-5′-(prop-1-en-1-yl)-3′,6′-dihydrospiro[5-androstene-17,2′-pyran]-3-ol], the “protection of PC12 cells” value in data set [2] is “found to promote PC12 cell survival during stress conditions; also recorded: promote cell survival as well as NGF does under stress conditions”.

As to `CCC1CCC2(CCC3C4CC=C5CC(O)CCC5(C)C4CCC32C)OC1` [ENT-A069, (3S,17R)-5′-(ethyl)-3′,6′-tetrahydrospiro[5-androstene-17,2′-pyran]-3-ol], in data set [1], the “residual of time zero” value is recorded as 95% and the “parent structure loss (depletion) class” value is reported as “slow (slow (5–19%))”. Moreover, in data set [2], the “protection of PC12 cells” value is reported as “found to promote PC12 cell survival during stress conditions; also recorded: promote cell survival as well as NGF does under stress conditions”.

Turning to `CC12CCC(O)CC1=CCC1C2CCC2(C)C1CCC21CC=C(C=CBr)CO1` [ENT-A066, (3S,17R)-5′-(2-bromovinyl)-3′,6′-dihydrospiro[5-androstene-17,2′-pyran]-3-ol], in data set [1], the “residual of time zero” value is reported as > 95% and the “parent structure loss (depletion) class” value is “very slow (very slow (<5%))”. Further, in data set [2], the “protection of PC12 cells” value is reported as “found to promote PC12 cell survival during stress conditions; also recorded: promote cell survival as well as NGF does under stress conditions”.
